In patent publication US4882319A, “Phosphonic acid substituted aromatic steroids as inhibitors of steroid 5-α-reductase” (SmithKline Beckman Corporation, priority 1988, dated 1989):
Read-outs that look alike come from different tables or passages of the source.

Legend:
5-α-Reductase = conditions: cited from earlier work; for Ki: literature value; for Ki / mode of inhibition (Reversible / Irreversible): Table I; for mode of inhibition (Reversible / Irreversible) / time dependence of 5-α-reductase inhibition: literature
[1] = target: T1, human steroid 5-α-reductase (Homo sapiens, UniProt P31213); assay: biochemical
T1 construct: Prostatic particles were obtained by differential centrifugation; from tissue; host or cells: hyperplastic human prostate, washed 140,000×g particulate fraction
T1 sequence (P31213 1-254): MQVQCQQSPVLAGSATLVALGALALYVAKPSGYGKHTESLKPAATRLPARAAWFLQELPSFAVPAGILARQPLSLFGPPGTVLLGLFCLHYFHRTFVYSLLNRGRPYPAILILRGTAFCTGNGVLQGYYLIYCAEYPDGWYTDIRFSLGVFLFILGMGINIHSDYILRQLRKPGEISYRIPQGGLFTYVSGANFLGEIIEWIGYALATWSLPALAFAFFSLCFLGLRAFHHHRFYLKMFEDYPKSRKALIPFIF
Procedure: A compound of the invention, 17β-(N,N-diisopropylcarboxamide)-estr-1,3,5(10)-triene-3-phosphonic acid, was tested for potency in inhibiting human steroid 5-α-reductase using tissue from hyperplastic human prostates. In determining potency in inhibiting the human enzyme, the following procedure was employed:
Frozen human prostates were thawed and minced into small pieces (5 mm^3). The tissue was homogenized in 3 to 5 volumes of 20 mM potassium phosphate buffer, pH 6.5, containing 0.33M sucrose, 1 mM dithiothreitol, and 50 μM NADPH with a Brinkmann Polytron (Sybron Corporation, Westbury, N.Y.). The solution was subjected to sonication for 3 to 5 minutes with a Sonifier (Branson Sonic Power Co.) followed by hand homogenization in a glass-to-glass Dounce homogenizer (Kontes Glass Company, Vineland, N.J.). […]
A constant amount of [^14 C]-testosterone (52 to 55 mCi/mmol, New England Nuclear, Boston, Mass.) in ethanol and varying amounts of the potential inhibitor in ethanol were deposited in test tubes and concentrated to dryness in a SAVANT Speed Vac. […] The radiochemical content in the bands of the substrate and the products was determined with a BIOSCAN Imaging Scanner (Bioscan, Inc., Washington, D.C.). The percent of recovered radiolabel converted to product was calculated, from which enzyme activity was determined. […]

[2] = system: human steroid 5-α-reductase; conditions: read-out: Michaelis-Menton constant (Km) of the substrate (testosterone); determined in a separate experiment

SMILES | Ki (5-α-Reductase) [µM] | mode of inhibition (Reversible / Irreversible) (5-α-Reductase) | other results
CC(=O)C1CCC2C3CC=C=CC(=O)CCC(=O)C3CCC12C (centres unmarked) [(2)] | 1 | Irreversible | 
CC12CCC(=O)C=C1CCC1C2CCC2(C)C1CC[C@@H]2C(=O)O (some centres unmarked) [(1)] | 1.1 | Reversible | 
CC(C)N(C(=O)[C@H]1CCC2C3CCc4cc(P(=O)(O)O)ccc4C3CCC21C)C(C)C (stereo partly drawn) [Example 1, 17β-(N,N-Diisopropylcarboxamide)-estr-1,3,5(10)-triene-3-phosphonic Acid] |  |  | Ki [1]: 0.05 µM
CC(CO)C1CCC2C3CC[C@H]4C(=[N+]=[N-])C(=O)CCC4(C)C3CCC12C (some centres unmarked) [(3)] |  | Irreversible | Ki (5-α-Reductase; unit inferred): 0.035 µM; time dependence of 5-α-reductase inhibition (5-α-Reductase): potent, time-dependent inhibitor
C[C@]12CC[C@H]3[C@@H](CCC4=CC(=O)CC[C@@]43C)[C@@H]1CC[C@@H]2O [testosterone] |  |  | Km [2]: 4.5 µM
CCN(CC)C(=O)C1CCC2C3CC[C@H]4N(C)C(=O)CCC4(C)C3CCC12C (some centres unmarked) [(4)] | 0.005 | Reversible | 
C=C1CC2C(CCC3(C)C2CC[C@]3(OC(C)=O)C(C)=O)C2(C)CCC(=O)C=C12 (some centres unmarked) [(5)] | 1.25 | Irreversible | time dependence of 5-α-reductase inhibition (5-α-Reductase): time-dependent inactivator
